Source: patent US8436013B2, “Compounds and methods for treatment of alpha-1 antitrypsin deficiency” (University of Florida Research Foundation, Inc., priority 2007, dated 2013)
Entries after “also recorded” stand apart in the source; their conditions may differ.

How the values were obtained:
[1] = tested on: human ATZ transgenic model; conditions: cited from earlier work
AAT-Z transgenic mice = assay: Liver histology (PASD staining, inflammation) in AAT-Z transgenic mice; type: in vivo; conditions: i.p. injection for 7 days, vs control
Procedure: FIG. 7. Compounds according to the invention decrease AAT accumulation and reduce inflammation in liver cells compared to control. AAT-Z transgenic mice were treated by i.p. injection of a compound or control for 7 days, followed by collection of liver tissue.
Compounds according to the invention decrease AAT accumulation and reduce inflammation in liver cells compared to control. AAT-Z transgenic mice were treated by i.p. injection of a compound or control for 7 days, followed by collection of liver tissue.

ATZ [2] = biological target: T1, ATZ (Homo sapiens, UniProt P01009, E366K); assay: ATZ secretion from CHO-ATZ cells, ELISA of culture supernatant; type: cell-based; conditions: various concentrations, supernatants at 24, 48 and 72 hours, DMSO controls
T1 construct: expressed in transfected cells; host or cells: CHO-ATZ cells
Procedure: FIG. 3. Effects of small molecule compounds on AAT secretion in cells. The CHO-ATZ cells were treated with various concentrations of NCI compounds. The culture supernatants were harvested for ELISA analysis. The data represent the means from 4-separate experiments.
Compounds listed in Table 1 were obtained from NCI/DTP. The compounds were dissolved in DMSO. As the first step, the compounds were tested in CHO-ATZ cells. Various concentrations of the compounds were added to the cells. The supernatants were harvested at time points: 24, 48, and 72 hours. The samples were then used for ELISA assay for human AAT.
(§1) Compounds were used to treat CHO-ATZ cells at various concentrations. Cell supernatant was harvested at different time points. ELISA test was performed to determine the level of ATZ in the supernatant. The cells were also harvested for Western blot analysis.

ATZ [3] = biological target: T1, ATZ; assay: ATZ accumulation in treated cells, Western blot; type: cell-based; conditions: cells treated with polymer inhibitor vs controls
Procedure: FIG. 4. Polymer inhibitor (1,9-decadiene) reduces the ATZ accumulation in cells. Cells were treated with polymer inhibitor and harvested for Western blot analysis.
as §1
We then examined these two potentially effective inhibitors. The cells were treated by the inhibitors, followed by protein extraction and Western blot analysis.

ATZ [4] = biological target: T1, ATZ; assay: Pulse-chase (35S labelling, anti-AAT immunoprecipitation) ATZ secretion in CHO cells; type: cell-based; conditions: CHO cells labeled with 35S, vs DMSO control
From the text: FIG. 5. Polymer inhibitor (1,9-decadiene) increases ATZ secretion. The cells were labeled with ^35S and harvested at the indicated time points. The protein extracts were immunoprecipitated using anti-AAT antibody. The immunocomplexes were then resolved in PAGE gel. The intensity of AAT bands were then quantified and calculated. FIG. 5A is the cells treated with DMSO control; FIG. 5B represents result of cells with polymer inhibitor treatment. […] A non-denaturing gel was used to analyze cell extracts from compound-treated CHO ATZ cells.

[5] = tested on: transgenic mice carrying a human ATZ transgene; assay: Serum AAT level (ELISA) in transgenic mice carrying a human ATZ transgene; type: in vivo; conditions: treated for two weeks
Procedure: FIG. 6. Compounds according to the invention can increase AAT secretion in transgenic animals. The animals were treated for two weeks. Serum AAT levels were determined by ELISA assay.
Two test compounds were administered to transgenic mice (four animals per group, including control) carrying a human ATZ transgene to determine whether the compounds are capable of increasing AAT secretion in a transgenic animal model. The animals were treated for two weeks. Serum AAT levels were determined by ELISA assay.

T1 sequence (P01009 25-418 E366K): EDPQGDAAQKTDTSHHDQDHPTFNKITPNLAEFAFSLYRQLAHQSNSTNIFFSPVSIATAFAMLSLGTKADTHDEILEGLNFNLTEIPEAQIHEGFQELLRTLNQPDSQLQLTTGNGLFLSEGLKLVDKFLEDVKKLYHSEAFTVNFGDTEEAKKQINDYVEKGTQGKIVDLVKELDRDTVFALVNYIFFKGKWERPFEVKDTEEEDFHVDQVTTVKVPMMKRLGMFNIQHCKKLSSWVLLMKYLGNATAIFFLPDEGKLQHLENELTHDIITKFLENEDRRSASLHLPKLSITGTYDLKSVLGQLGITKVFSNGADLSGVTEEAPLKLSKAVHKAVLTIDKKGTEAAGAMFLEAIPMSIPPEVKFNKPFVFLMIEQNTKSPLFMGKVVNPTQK

Row | Compound | blood levels of AAT [1] | AAT accumulation in hepatocytes (PASD staining) (AAT-Z transgenic mice) | liver tissue inflammation (AAT-Z transgenic mice) | ATZ secretion (ELISA of supernatant) (ATZ [2]) | ATZ secretion (ELISA of supernatant) (ATZ [2]; listed as NSC 102789) | ATZ accumulation in cells (Western blot) (ATZ [3]) | ATZ secretion (pulse-chase) (ATZ [4]) | AAT serum level enhancement [5] | ATZ secretion (ELISA of supernatant) (ATZ [2]; listed as NSC 21034)
1 | O=C(O)CCCc1ccccc1 [4-phenylbutyric acid] | can increase blood levels of AAT | – | – | – | – | – | – | – | –
2 | C=CCCCCCCC=C [1,9-decadiene] | – | decrease AAT accumulation in hepatocytes | reduced live tissue inflammation | effectively enhance ATZ secretion in the cells | appear to be effective for inhibition of ATZ secretion | reduced amount of ATZ; also recorded: effectively reduce the accumulation of ATZ in cells | increases the ATZ secretion in the supernatant | more than two-fold | –
3 | O=C(O)/C=C/c1cc2c(cc1[N+](=O)[O-])OCO2 [3,4-methylenedioxy-6-nitrocinnamic acid] | – | decrease AAT accumulation in hepatocytes | reduced live tissue inflammation | effectively enhance ATZ secretion in the cells | – | – | – | more than two-fold | appear to be effective for inhibition of ATZ secretion
